2 compounds from patent publication EP0622358A1, “Phenylglycinamides of 4-imidazolylmethyl-phenyl-acetic acids and their use against hypertension and atherosclerosis” (BAYER AG, priority 1993, dated 1994) can be followed below.

In this assay the test system is glatte Muskelzellen. As to the kind of experiment: Inhibition of proliferation of smooth muscle cells (3H-thymidine incorporation). The format is cell-based, Ratten. To be noted: half-maximal inhibition of thymidine incorporation induced by 10% FCS; rat aortic smooth muscle cells; read-out: IC₅₀. The method, then:
Untersuchung zur Inhibition der Proliferation glatter Muskelzellen durch die erfindungsgemäßen Verbindungen
Zur Feststellung der antiproliferativen Wirkung der Verbindungen werden glatte Muskelzellen verwendet, die aus den Aorten von Ratten durch die Media-Explantat-Technik gewonnen werden [R. Ross, J. Cell. Biol. 50, 172, 1971]. Die Zellen werden in geeigneten Kulturschalen, in der Regel 96-Loch-Platten, ausgesät und für 2 - 3 Tage in Medium 199 mit 7,5% FCS und 7,5% NCS, 2 mM L-Glutamin und 15 mM HEPES, pH 7,4 in 5% CO₂ bei 37°C kultiviert. Danach werden die Zellen durch Serumentzug für 2 - 3 Tage synchronisiert und sodann mit Serum zum Wachstum angeregt. Gleichzeitig werden Testverbindungen zugesetzt. Nach 16 - 20 Stunden wird 1 µCi ³H-Thymidin zugefügt und nach weiteren 4 Stunden der Einbau dieser Substanz in die TCA-präzipitierbare DNA der Zellen bestimmt Zur Bestimmung der IC₅₀₋Werte wird die Wirkstoffkonzentration errechnet, die bei sequentieller Verdünnung des Wirkstoffes halbmaximale Hemmung der durch 10% FCS hervorgerufene Thymidininkorporation bewirkt. Tabelle B
In general terms: Uptake of a labelled nucleoside into DNA is a usual measure of proliferation.

`CCCCc1nc(Cl)c(C=O)n1Cc1ccc(C(C(=O)NC(C(N)=O)c2ccccc2)C2CCCC2)cc1` (centres unmarked) [Beispiel 1, 2-{2-[4-(2-Butyl-4-chlor-5-formyl-imidazol-1-yl-methyl)phenyl]-2-cyclopentyl}-acetamido-2-phenyl-acetamid]: the IC50 came out at 1 nM. The figure for `CCCCc1nc(Cl)c(CO)n1Cc1ccc(C(C(=O)NC(C(N)=O)c2ccccc2)C2CCCC2)cc1` (centres unmarked) [Beispiel 6, 2-{2-[4-(2-Butyl-4-chlor-5-hydroxymethyl-imidazol-1-yl-methyl)phenyl]-2-cyclopentyl}acetamido-2-phenyl-acetamid] is 0.2 nM.
